Measured values published in patent EP0060099A1, “Antiviral agents, their preparation and use” (BEECHAM GROUP PLC, priority 1981, dated 1982).
Converted amounts (≈) assume the structure as drawn.

Key:
[1] = tested on: Herpes simplex type 1 virus (HFEM strain); assay: Plaque reduction test in Vero cells infected with Herpes simplex type 1 virus; type: cell-based; conditions: Human alphaherpesvirus 1, 144 h, concentration causing a 50% reduction in the number of virus plaques formed, agarose overlay, 37°C for 6 days, read-out: PDD50 (the source's name)
Protocol: (§1) Vero (African Green Monkey Kidney) cells were grown to confluence in 6 well multidishes, each well being 3.5 cm in diameter'. The cells were incubated with Herpes simplex type 1 virus (HFEM strain) and overlaid with 0.5 mL of 0.9% agarose (w/v) in maintenance medium containing the test compound at a range of concentrations from […] in half-log dilution steps. The virus infected cultures were then incubated at 37°C for 6 days before fixing in 4% formaldehyde solution and staining with carbolfuchsin. The dishes were then examined to find that concentration of test compound causing a 50% reduction in the number of virus plaques formed (PDD50 value) and the minimum concentration of test compound which killed the cell monolayer, leaving a clear zone devoid of cells and virus plaques (MTD).

[2] = Toxicity to the cell monolayer in the plaque reduction test (MTD); type: cell-based, African Green Monkey; conditions: monkey, vero cells; minimum concentration which killed the cell monolayer; virus infected Vero cultures, 37°C for 6 days
Protocol: as §1

Row | IC50 [1] | Structure (SMILES) | MCC at 144 h [2]
1 | 2.8 µg/mL (≈ 8.89 µM) | O=c1nc2n(cc1/C=C/Br)[C@H]1C[C@H](O)[C@@H](CO2)O1 [1 (b), 2,5'-Anhydro-E-5-(2-bromovinyl)-2'-deoxyuridine] | > 50 µg/mL
2 | 13.5 µg/mL (≈ 37.8 µM) | CC(=O)OC1CC2OC1COc1nc(=O)c(C=CBr)cn12 (stereo not shown) [2 (b), 3'-0-Acetyl-2,5'-anhydro-E-5-(2-bromovinyl)-2'-deoxyuridine] | > 100 µg/mL
